Measured values taken from patent US8765748B2, “Indazolyl, benzimidazolyl, benzotriazolyl substituted indolinone derivatives as kinase inhibitors useful in the treatment of cancer” (University Health Network, priority 2007, dated 2014).

Assays:
[1] = molecular target: T1, human PLK4 (Homo sapiens, UniProt O00444); experiment: PLK4 Inhibition Assay (indirect ELISA); format: biochemical; details: 15 μM ATP, 4 nM GST-PLK4; read-out: PLK4 IC50 Ranges
T1 construct: amino terminal GST fusion of residues 1-391 of human PLK4; made in house; host or cells: E. coli
T1 sequence (O00444 1-391): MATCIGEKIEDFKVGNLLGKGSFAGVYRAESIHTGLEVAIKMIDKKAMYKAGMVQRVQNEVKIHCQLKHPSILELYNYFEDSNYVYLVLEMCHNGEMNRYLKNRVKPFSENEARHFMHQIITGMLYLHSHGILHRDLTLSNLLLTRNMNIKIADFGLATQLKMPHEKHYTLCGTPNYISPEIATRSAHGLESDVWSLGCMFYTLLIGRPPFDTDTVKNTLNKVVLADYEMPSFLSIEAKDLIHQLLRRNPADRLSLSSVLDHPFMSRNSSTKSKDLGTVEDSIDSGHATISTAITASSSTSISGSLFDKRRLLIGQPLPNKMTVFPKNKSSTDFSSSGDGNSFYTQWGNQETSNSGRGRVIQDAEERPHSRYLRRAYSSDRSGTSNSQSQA
How it was run: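 Dephosphorylated (lambda phosphatase) GST-PLK4 activity read by indirect ELISA. Compounds were pre-incubated with enzyme for 15 minutes before ATP was added. IC50 came from a non-linear 4-point logistic fit.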

[2] = molecular target: T2, PLK3 (Homo sapiens, UniProt Q9H4B4); experiment: PLK3 Inhibition Assay (Z-Lyte); format: biochemical; details: 100 μM ATP, 21 nM PLK3
T2 construct: purchased Invitrogen PV3812
Description: (§1) PLK3 inhibition was determined using the Z-Lyte assay kit from Invitrogen (cat #PV3802). The assay was performed using the recommended manufacturer's instructions with 100 μM ATP and 21 nM PLK3 (Invitrogen cat #PV3812). The % inhibition values were determined according to the manufacturer's directions and IC50 values were obtained using a non-linear 4 point logistic curve fit (XLfit4, IDBS).

[3] = test system: MCF-7 luminal breast cancer cell line; experiment: Cell growth inhibition, Sulforhodamine B assay (SRB); format: cell-based; details: Homo sapiens, MCF7, 120 h; 5 days culture, SRB; read-out: Cell Line GI50 Range, MCF-7
Description: (§2) Breast cancer cells (MCF-7, MDA-MB-468, HCC1954), colon cancer cells (SW620) and lung cancer cells (A549), together with human mammary epithelial primary cells (HMEC), were seeded (1000 to 4000 per 80 μl per well depending on the cell growth rate) into 96 well plates, 24 hours before compound overlay. Compounds were prepared as 10 mM stock solutions in 100% DMSO which were diluted with DMEM (Dulbecco's Modified Eagle's Medium) cell growth Medium (Invitrogen, Burlington, ON, Canada) containing 10% FBS (Fetal Bovine Serum) to concentrations ranging from 50 nM to 250 μM. Aliquots (20 μl) from each concentration were overlaid to 80 μl of the pre-seeded cells in the 96 well plates to make final concentrations of 10 nM to 50 μM. The cells were cultured for 5 days before the Sulforhodamine B assay (SRB) was performed to determine the compound's cell growth inhibition activity.
(§3) Sulforhodamine B (purchased from Sigma, Oakville, ON, Canada) is a water-soluble dye that binds to the basic amino acids of the cellular proteins. Thus, colorimetric measurement of the bound dye provides an estimate of the total protein mass that is related to the cell number. the cells are fixed in situ by gently aspirating off the culture media and adding 50 μl ice cold 10% Tri-chloroacetic Acid (TCA) per well and incubate at 4° C. for 30-60 min, The plates are washed with water five times and allowed to air dry for 5 min. Addition of 50 μl 0.4% (w/v) SRB solution in 1% (v/v) acetic acid to each well and incubatation for 30 min at RT completes the staining reaction. Following staining, plates are washed four times with 1% acetic acid to remove unbound dye and then allowed to air dry for 5 min. The stain is solubilized with 100 μl of 10 mM Tris pH10.5 per well. Absorbance is read at 570 nm.
(§4) The percentage (%) of relative growth inhibition was calculated by comparing to DMSO treated only cells (100%). GI50's were determined for compounds with cytotoxic activity. The GI50 was calculated using GraphPad PRISM software (GraphPad Software, Inc., San Diego, Calif., USA).

[4] = test system: A549 lung cancer cells; experiment: as above; format: cell-based; details: Homo sapiens, A549, 120 h, 5 days culture, read-out: Cell Line GI50 Range, A-549
Description: as §2, §3, §4

[5] = test system: HCC1954 basal breast cancer cell line; experiment: as above; format: cell-based; details: Homo sapiens, HCC1954, 120 h, 5 days culture, read-out: Cell Line GI50 Range, HCC-1954
Description: as §2, §3, §4

[6] = test system: SW620 colon cancer cells; experiment: as above; format: cell-based; details: Homo sapiens, SW-620, 120 h, 5 days culture, read-out: Cell Line GI50 Range, SW-620
Description: as §2, §3, §4

[7] = test system: MDA-MB-468 basal breast cancer cell line; experiment: as above; format: cell-based; details: Homo sapiens, MDA-MB-468, 120 h; 5 days culture, SRB; read-out: Cell Line GI50 Range, MDA-MB-468
Description: as §2, §3, §4

[8] = molecular target: T3, Aurora A (Homo sapiens, UniProt O14965); experiment: Aurora A Inhibition Assay (Z-Lyte); format: biochemical; details: for IC50: 20 μM ATP, 12 nM Aurora A, read-out: Aurora A IC50 Ranges; for inhibition at 10 µM: 10 μM compound, read-out: Aurora A relative inhibition percentage at a dose of 10 μM
T3 construct: purchased Invitrogen PV3612
T3 sequence (O14965 1-403): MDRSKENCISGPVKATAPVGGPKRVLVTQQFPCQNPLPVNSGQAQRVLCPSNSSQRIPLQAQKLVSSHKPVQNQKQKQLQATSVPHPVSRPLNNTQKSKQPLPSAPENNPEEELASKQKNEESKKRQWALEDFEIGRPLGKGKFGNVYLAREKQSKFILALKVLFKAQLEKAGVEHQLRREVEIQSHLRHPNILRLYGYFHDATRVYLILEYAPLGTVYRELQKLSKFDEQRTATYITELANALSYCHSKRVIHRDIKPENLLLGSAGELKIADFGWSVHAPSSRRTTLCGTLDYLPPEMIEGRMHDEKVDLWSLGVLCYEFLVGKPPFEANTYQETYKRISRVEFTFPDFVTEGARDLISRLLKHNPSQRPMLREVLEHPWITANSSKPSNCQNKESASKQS
Description: as §1, with “Aurora A” for “PLK3”, “Invitrogen.” for “Invitrogen (cat #PV3802).”, “20” for “100”, “12” for “21”, “#PV3612).” for “#PV3812).”, “IDBS)” for “IDBS).”

[9] = molecular target: T4, PLK1 (Homo sapiens, UniProt P53350); experiment: PLK1 Inhibition Assay (Z-Lyte); format: biochemical; details: for inhibition at 10 µM: 10 μM compound, read-out: PLK1 relative inhibition percentage at a dose of 10 μM
T4 construct: purchased Invitrogen PV3501
Description: PLK1 inhibition was determined using the Z-Lyte assay kit from Invitrogen (cat #PV3802). […] The % inhibition values were determined according to the manufacturer's directions and IC50 values were obtained using a non-linear 4 point logistic curve fit (XLfit4, IDBS)

[10] = molecular target: T5, Aurora B (Homo sapiens, UniProt Q96GD4); experiment: Aurora B Inhibition Assay (Z-Lyte); format: biochemical; details: 128 μM ATP, 28 nM Aurora B; read-out: Aurora B IC50 Ranges
T5 construct: purchased Invitrogen PV3970
Description: as §1, with “Aurora B” for “PLK3”, “Invitrogen.” for “Invitrogen (cat #PV3802).”, “128” for “100”, “28” for “21”, “#PV3970).” for “#PV3812).”, “IDBS)” for “IDBS).”

[11] = molecular target: T6, PLK2 (Homo sapiens, UniProt Q9NYY3); experiment: PLK2 Inhibition Assay (Z-Lyte); format: biochemical; details: 10 μM compound; read-out: PLK2 relative inhibition percentage at a dose of 10 μM
T6 construct: purchased Invitrogen PV4204
Description: as §1, with “PLK2” for “PLK3”, “60” for “100”, “133” for “21”, “#PV4204).” for “#PV3812).”, “IDBS)” for “IDBS).”

T4 sequence (P53350 whole entry): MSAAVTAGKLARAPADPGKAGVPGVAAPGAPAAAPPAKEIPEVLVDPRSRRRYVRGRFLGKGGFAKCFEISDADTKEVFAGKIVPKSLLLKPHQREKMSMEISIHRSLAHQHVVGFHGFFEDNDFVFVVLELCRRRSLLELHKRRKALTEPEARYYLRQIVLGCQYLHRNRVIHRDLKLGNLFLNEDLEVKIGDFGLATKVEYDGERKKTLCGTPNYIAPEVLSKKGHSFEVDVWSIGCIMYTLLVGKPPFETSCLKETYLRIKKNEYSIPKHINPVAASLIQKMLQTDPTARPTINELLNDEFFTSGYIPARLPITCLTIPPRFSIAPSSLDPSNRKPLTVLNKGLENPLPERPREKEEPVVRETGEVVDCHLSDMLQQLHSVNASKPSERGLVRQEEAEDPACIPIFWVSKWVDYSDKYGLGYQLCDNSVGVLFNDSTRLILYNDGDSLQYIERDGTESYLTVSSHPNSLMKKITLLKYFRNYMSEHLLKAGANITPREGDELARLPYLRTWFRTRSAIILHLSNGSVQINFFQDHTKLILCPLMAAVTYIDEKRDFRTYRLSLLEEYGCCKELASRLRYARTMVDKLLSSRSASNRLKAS
T2 sequence (Q9H4B4 whole entry): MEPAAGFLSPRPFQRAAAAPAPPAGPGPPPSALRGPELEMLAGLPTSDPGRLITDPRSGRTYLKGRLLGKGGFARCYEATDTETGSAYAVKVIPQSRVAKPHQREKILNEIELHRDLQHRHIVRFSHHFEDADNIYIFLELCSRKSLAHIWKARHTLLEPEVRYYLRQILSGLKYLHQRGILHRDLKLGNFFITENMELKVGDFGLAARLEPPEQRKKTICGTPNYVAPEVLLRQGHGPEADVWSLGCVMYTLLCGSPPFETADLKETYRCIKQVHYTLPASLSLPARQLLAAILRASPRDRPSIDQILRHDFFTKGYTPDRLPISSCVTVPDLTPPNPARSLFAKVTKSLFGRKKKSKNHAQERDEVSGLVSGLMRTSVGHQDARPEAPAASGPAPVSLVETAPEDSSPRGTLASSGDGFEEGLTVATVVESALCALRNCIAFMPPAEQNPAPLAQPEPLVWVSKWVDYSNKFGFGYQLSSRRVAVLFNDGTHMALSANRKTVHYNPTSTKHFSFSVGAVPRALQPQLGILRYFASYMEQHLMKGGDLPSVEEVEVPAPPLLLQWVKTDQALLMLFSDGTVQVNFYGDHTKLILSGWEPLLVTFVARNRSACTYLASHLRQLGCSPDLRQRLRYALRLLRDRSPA
T5 sequence (Q96GD4 whole entry): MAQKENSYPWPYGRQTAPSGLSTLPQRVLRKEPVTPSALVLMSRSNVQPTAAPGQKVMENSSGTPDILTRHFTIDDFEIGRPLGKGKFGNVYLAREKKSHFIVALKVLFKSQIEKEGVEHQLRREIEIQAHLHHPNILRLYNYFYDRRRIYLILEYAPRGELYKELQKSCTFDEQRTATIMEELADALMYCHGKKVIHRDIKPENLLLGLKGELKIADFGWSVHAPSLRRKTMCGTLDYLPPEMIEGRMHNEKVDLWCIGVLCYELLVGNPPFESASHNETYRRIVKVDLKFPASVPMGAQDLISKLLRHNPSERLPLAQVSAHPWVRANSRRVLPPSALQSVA
T6 sequence (Q9NYY3 whole entry): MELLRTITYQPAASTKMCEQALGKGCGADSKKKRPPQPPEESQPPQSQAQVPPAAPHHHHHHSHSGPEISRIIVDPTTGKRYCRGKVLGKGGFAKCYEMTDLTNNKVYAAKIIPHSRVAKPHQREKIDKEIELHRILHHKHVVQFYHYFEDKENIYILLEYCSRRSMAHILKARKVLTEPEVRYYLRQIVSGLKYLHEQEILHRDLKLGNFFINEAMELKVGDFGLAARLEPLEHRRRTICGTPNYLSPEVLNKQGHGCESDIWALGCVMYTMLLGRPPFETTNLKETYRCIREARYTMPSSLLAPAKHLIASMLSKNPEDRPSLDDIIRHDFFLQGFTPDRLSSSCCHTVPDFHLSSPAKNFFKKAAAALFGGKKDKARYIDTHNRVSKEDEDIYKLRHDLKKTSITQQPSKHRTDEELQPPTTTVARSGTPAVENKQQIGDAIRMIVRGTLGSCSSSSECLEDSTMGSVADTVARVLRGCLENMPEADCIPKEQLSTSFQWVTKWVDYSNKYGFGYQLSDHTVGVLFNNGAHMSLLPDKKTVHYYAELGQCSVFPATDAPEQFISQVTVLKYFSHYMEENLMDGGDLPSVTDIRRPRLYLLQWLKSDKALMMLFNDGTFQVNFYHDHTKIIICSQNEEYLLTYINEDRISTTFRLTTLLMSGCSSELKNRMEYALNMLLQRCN

In the case of `N#Cc1cccc2c1NC(=O)C2=Cc1ccc2cn[nH]c2c1` (mixture of isomers) [Example A45, (E and Z)-3-((1H-indazol-6-yl)methylene)-2-oxoindoline-7-carbonitrile], the IC50 [1] is reported as 5 to 50 µM and the IC50 [2] is reported as over 0.5 µM.

In the case of `COc1ccccc1/C=C/c1n[nH]c2cc(C=C3C(=O)Nc4ccccc43)ccc12` (mixture of isomers) [Example A59, (E and Z)-3-((3-((E)-2-methoxystyryl)-1H-indazol-6-yl)methylene)-indolin-2-one], the GI50 [3] is reported as under 5 µM, the GI50 [4] is reported as 5 to 20 µM and the GI50 [5] is reported as 5 to 20 µM. The GI50 [6] was under 5 µM, the GI50 [7] was under 5 µM and the IC50 [8] was under 5 µM. The IC50 [1] was under 5 µM, the inhibition at 10 µM [9] was under 50% and the IC50 [10] was under 5 µM. For the same compound, the inhibition at 10 µM [11] was under 50%.

With `CN1CCN(c2ccc(-c3n[nH]c4cc(C=C5C(=O)Nc6ccccc65)ccc34)cn2)CC1` (mixture of isomers) [Example A96, (E and Z)-3-((3-(6-(4-methylpiperazin-1-yl)pyridin-3-yl)-1H-indazol-6-yl)methylene)indolin-2-one] the GI50 [3] was under 5 µM, the GI50 [4] was under 5 µM and the GI50 [5] was under 5 µM. The GI50 [6] was under 5 µM, the GI50 [7] was under 5 µM and the inhibition at 10 µM [8] was over 50%. It also gave an IC50 [1] of under 5 µM, an inhibition at 10 µM [9] of under 50% and an IC50 [10] of under 5 µM.

`CN(C)c1ccc(C#Cc2n[nH]c3cc(C=C4C(=O)Nc5ccccc54)ccc23)cc1` (mixture of isomers) [Example A149, (E and Z)-3-((3-((4-(dimethylamino)phenyl)ethynyl)-1H-indazol-6-yl)methylene)indolin-2-one] showed an IC50 [8] of 5 to 50 µM, an IC50 [1] of under 5 µM and an IC50 [10] of under 5 µM. It also gave an IC50 [2] of over 0.5 µM.

In the case of `CN1CCN(c2ccc(-c3n[nH]c4cc(C=C5C(=O)Nc6ccc(Br)cc65)ccc34)cn2)CC1` (mixture of isomers) [Example A150, (E and Z)-5-bromo-3-((3-(6-(4-methylpiperazin-1-yl)pyridin-3-yl)-1H-indazol-6-yl)methylene)indolin-2-one], the GI50 [3] is reported as under 5 µM, the GI50 [4] is reported as under 5 µM and the GI50 [5] is reported as under 5 µM. It also gave a GI50 [6] of under 5 µM, a GI50 [7] of under 5 µM and an IC50 [1] of under 5 µM.

In the case of `COc1ccc2c(c1)C(=Cc1ccc3c(-c4cccc(-c5nnn[nH]5)c4)n[nH]c3c1)C(=O)N2` (mixture of isomers) [Example A153, (E and Z)-3-((3-(3-(1H-tetrazol-5-yl)phenyl)-1H-indazol-6-yl)methylene)-5-methoxyindolin-2-one], the IC50 [8] is reported as under 5 µM, the IC50 [1] is reported as under 5 µM and the IC50 [10] is reported as under 5 µM. It also gave an IC50 [2] of over 0.5 µM.

`CC(=O)Nc1cccc2c1NC(=O)/C2=C/c1ccc2cn[nH]c2c1` [Example A49, (E)-N-(3-((1H-indazol-6-yl)methylene)-2-oxoindolin-7-yl)acetamide] gave an IC50 [1] of under 5 µM, an IC50 ([9]; 25 μM ATP, 8 nM PLK1, read-out: PLK1 IC50 Ranges) of over 50 µM and an inhibition at 10 µM [11] of over 50%. The IC50 [2] was over 0.5 µM.

Work on `Cc1ccc2c(c1)/C(=C\c1ccc3c(/C=C/C(=O)N(C)CCN(C)C)n[nH]c3c1)C(=O)N2` [Example A125, (E and Z)—N-(2-(dimethylamino)ethyl)-N-methyl-3-(6-((E)-(5-methyl-2-oxoindolin-3-ylidene)methyl)-1H-indazol-3-yl)acrylamide] yielded an inhibition at 10 µM [8] of over 50%, an IC50 [1] of under 5 µM and an IC50 [10] of under 5 µM. For the same compound, the IC50 [2] was over 0.5 µM.

Work on `O=C1Nc2ccccc2/C1=C\c1ccc2c(C#Cc3cccnc3)n[nH]c2c1` [Example A147, (E)-3-((3-(pyridin-3-ylethynyl)-1H-indazol-6-yl)methylene)indolin-2-one] yielded a GI50 [3] of 20 to 50 µM, a GI50 [4] of over 50 µM and a GI50 [5] of over 50 µM. For the same compound, the GI50 [6] was 20 to 50 µM, the GI50 [7] was 5 to 20 µM and the IC50 [1] was under 5 µM.

In the case of `COc1ccc2c(c1)/C(=C\c1ccc3c(C#Cc4cccnc4)n[nH]c3c1)C(=O)N2` [Example A148, (E)-5-methoxy-3-((3-(pyridin-3-ylethynyl)-1H-indazol-6-yl)methylene)indolin-2-one], the IC50 [1] is reported as under 5 µM, the IC50 [10] is reported as under 5 µM and the IC50 [2] is reported as over 0.5 µM.

For `CN1CCN(c2ncc(-c3n[nH]c4cc(C=C5C(=O)Nc6ccc(OC(F)(F)F)cc65)ccc34)cn2)CC1` [Example A152, (E & Z)-3-((3-(2-(4-methylpiperazin-1-yl)pyrimidin-5-yl)-1H-indazol-6-yl)methylene)-5-(trifluoromethoxy)indolin-2-one], the IC50 [1] was under 5 µM, the IC50 [10] was 5 to 50 µM and the IC50 [2] was over 0.5 µM.
